These results are taken from a melting point compilation (Tetko et al.; mined from patent text by program, amines drawn as free bases though some values may be those of a salt).

Each structure is given as a SMILES string.

What is called melting point is the temperature, or range, at which the solid turns liquid.

Consider `O=c1c(C2CC2)c(N2CCC(c3ccccc3)CC2)ccn1CC1CC1`, for which the melting point was 202 °C. As to `CNC(=O)c1cc(-c2ccc(OC)c(Cl)c2)nn(CC(C)C)c1=O`, the melting point is 182 to 184 °C. The value for `CCC(CC)CCOCCCCCCNCC(O)c1ccc(O)c(NS(C)(=O)=O)c1` (centres undefined) was 69 to 71 °C; that for `CC(=O)Oc1c(C)cc(C2C(=O)Oc3c2cc(C(C)(C)C)cc3C(C)(C)C)cc1C` (centres undefined) was 165 to 166 °C; that for `O=C(O)C1=C(C(F)(F)F)COc2ccc3ccccc3c21` was 246 to 249 °C. The value for `CCN(CC)CCOc1ccc(Nc2ncc3c(n2)N(Cc2ccccc2)C(=O)N(c2c(Cl)cccc2Cl)C3)cc1` was 106 °C.

In the case of `N[C@@H]1CN(c2c(F)cc3c(=O)c(C(=O)O)cn(C4CC4)c3c2F)C[C@@H]1n1ccnn1` (relative stereo), the melting point was 245 to 247 °C. The value for `CCCc1nc2c(N)nc(C)c(C)c2n1CC(C)(C)NS(C)(=O)=O` was 85 to 93 °C; that for `COC(=O)c1c(F)cc(OCCNC(=O)C2Cc3ccccc3N2S(=O)(=O)c2ccc(-c3cccc(C(F)(F)F)c3)cc2)cc1F` (centres undefined) was 68 to 71 °C; that for `COC(=O)c1nc(OC)n2c1CN=C(c1ccccc1Cl)c1cc(Cl)ccc1-2` was 155 to 160 °C.

As for `O=C1CN(c2c(F)cc(N3C[C@H](CNC(=S)Nc4ccccn4)OC3=O)cc2F)CN1`, the melting point lay within 194 to 196 °C. Turning to `COc1ccc(-c2ccn(C)c2-c2ccc(OC)cc2)cc1`, the melting point lay within 126 to 127 °C. `O=C(O)C1=Cc2cc(Cl)c(Oc3ccccn3)cc2OC1C(F)(F)F` (centres undefined) returned a melting point of 234 to 235 °C. `NC(=O)[C@H]1CN(c2ccc(C3CCOCC3)c(F)c2)C(=O)O1` had a melting point of 153 to 156 °C. As to `O=C1CCN(Cc2ccc([N+](=O)[O-])cc2)C(=O)C1=C1SC=CS1`, the melting point lay within 192 to 193 °C.

Molecule `COc1ccccc1-c1csc(Nc2ccc(C)cn2)n1` gave a melting point of 228 to 230 °C. Turning to `O=C(O)CCCCCCCCCCCCCCCCCCC(=O)n1nnc2ccccc21`, the melting point was determined as 112 °C. In the case of `O=C1COc2ccc(C3=Cc4ccc(NCCO)cc4SC3c3ccccc3)cc2N1` (centres undefined) it was 201 to 202 °C. In turn, `CCCCCCCCCCCOc1cc(C(=O)O)ccc1CO` came in with a melting point of 82 to 83 °C. The value for `Cc1cc(CO)cc(C#N)n1` was 136 to 138 °C. As for `CNCc1cccc(CN(C)c2nc(=O)c3c(C)c(OC)c(OC)cc3[nH]2)c1`, the melting point fell in the range of 179 to 181 °C.

On to `CN(CCc1ccccc1)C1CCN(C(=O)Nc2ccccc2)CC1`, for which the melting point lay within 105 to 107 °C.

`C#CCOc1cccnc1Cl` returned a melting point of 78 to 79 °C. In turn, `COc1ccccc1C1(CC(=O)O)C(=O)Nc2cc(Cl)c(Cl)cc21` (centres undefined) yielded a melting point of 222 to 224 °C.

As to `CCOC(=O)C(=O)C(C#N)c1cccc(Oc2ccccc2)c1` (centres undefined), the melting point lay within 105 to 109 °C. In the case of `CC(C)(C)c1cc(-c2nc(C(Cl)(Cl)Cl)no2)cc(C(C)(C)C)c1O` it was 100 to 102 °C; in that of `CC(C)=NNc1nc(C(Cl)(Cl)Cl)ns1`, 66 °C; in that of `CNC(=S)n1nc(NC(=O)c2ccccc2)nc1N`, above 300 °C. In the case of `Cc1cc(C#N)cc(C)c1C(=O)CBr` it was 76 °C; in that of `O=C(/C=C/c1ccc(C(F)(F)F)cc1Br)Nc1ccc2ncsc2c1`, 214 to 215 °C; in that of `COc1nc2c(c3ccccc13)c1cc(Cl)ccc1n2C`, 179 to 180 °C.

`Nc1cc2ccncc2c2sc3ccccc3c12`: the melting point lay in the range of 220 to 225 °C.

Molecule `COc1cc(C=C(C#N)C(=O)Nc2cccc(Cl)c2)cc(Cl)c1O` returned a melting point of 225 to 226 °C.

On to `COc1ccc(C2=NN(c3cccc(C(=O)O)c3)C(=O)C(C)(C)C2)cc1OC`, for which the melting point lay in the range of 165 to 167 °C. Consider `CCCCCCNC(=O)C1=C(C(=O)Nc2cc(OC3CCC(C)C3)c(Cl)cc2F)CCCC1` (centres undefined), for which the melting point fell in the range of 127 to 129 °C. In the case of `CC(C)(C)c1ccnc(C(=O)c2[nH]c3cc(Cl)ccc3c2CC(=O)O)c1` it was 203 to 205 °C; in that of `CC(Oc1ccc(Oc2ncc(Cl)cc2N)cc1)C(=O)O` (centres undefined), 152 to 154 °C; in that of `CC(C)(C)NNC(=O)c1ccccc1`, 94 to 95 °C. `CC(=O)C1Cc2cc(CCN3CCC(c4noc5cc(F)ccc45)CC3)sc2CN1` (centres undefined) registered a melting point of 170 to 172 °C. The value for `CN1CCC[C@@H]1Cc1cn(Cc2ccccc2)c2ccc(CS(=O)(=O)N(C)C(c3ccccc3)c3ccccc3)cc12` was 117 to 120 °C; that for `CC#CCOc1cc(Oc2ccc([N+](=O)[O-])cc2F)ncn1` was 132 °C; that for `Cc1nn(-c2c(Cl)cc(C(F)(F)F)cc2Cl)nc1C(=O)O` was 185 to 186 °C. Take `CCc1ccc(S(=O)(=O)c2ccc(C)nc2Nc2ccc(OC)cc2Cl)cc1`: the melting point was 110 to 112 °C.

Regarding `CCc1nc2c(C)cc(C)nc2n1Cc1ccc(C(CC(=O)NS(=O)(=O)c2ccccc2)c2ccccc2)cc1` (centres undefined), the melting point is 81 to 86 °C. In the case of `CCNC(=O)c1cccc(NCC(=O)NCCc2ccc(OC)c(OC)c2)c1` it was 99 to 101 °C. In the case of `CCCCCc1nc2ccc(C(=O)O)cc2c(=O)[nH]1` it was 310 to 312 °C. On to `CC(C)(C)OC(=O)NCCNC(=O)c1ncccc1Oc1ccccc1`, for which the melting point was 97 to 98 °C. The value for `COc1ccc(Cl)c(N)c1C(=O)CCl` was 112 °C. In the case of `CCOc1cccc(-c2nc3ccc(C(=O)O)cc3c(=O)[nH]2)c1OCC` it was above 320 °C.

On to `CC1CC(=O)C1(Cl)CC(Cl)(Cl)Cl` (centres undefined), for which the melting point lay in the range of 80 to 81 °C. In the case of `O=[N+]([O-])C(Sc1ccccc1)=C1NCCCS1` it was 144 to 147 °C; in that of `CCC(=O)NS(=O)(=O)c1ccc2c3c(cc([N+](=O)[O-])c2c1)NCC3CCl` (centres undefined), 173 to 177 °C; in that of `c1ccc(Cn2c(NC3=NCCN3)nc3ccccc32)cc1`, 165 to 166 °C. `CCC[C@@H]1O[C@](/C=C/C2CC2)(C(F)(F)F)c2cc(Cl)ccc2NC1=O` (relative stereo): the melting point lay in the range of 165 to 167 °C. Molecule `Cc1ccc(N2C(=O)C(O)=C(C(=O)c3ccc(C(C)C)cc3)C2c2ccc(C(F)(F)F)cc2)nn1` (centres undefined) registered a melting point of 252 °C. The value for `O=C1CC(=O)CC(c2cc([N+](=O)[O-])ccc2F)C1` was 171 to 173 °C.

The molecule `COc1ccc(C(=CC#N)c2cc(OC)c(OC)c(OC)c2)cc1N` came in with a melting point of 97 to 99 °C. `CC(=O)OC1=CC(NC(=O)CCc2ccc(Cl)cc2Cl)C(=O)N(C)c2ccccc21` (centres undefined) displayed a melting point of 142 to 144 °C.

Regarding `CCOCc1nc2c(N)nc(C)c(C)c2n1NCc1ccccc1`, the melting point was in the range of 149 to 151 °C. Turning to `COC(=O)Nc1nc2ccc(OS(=O)(=O)c3cccc(OC(F)(F)C(F)F)c3)cc2[nH]1`, the melting point came to 186 °C. Turning to `COc1ccc(COc2cccc(OC)c2C(=O)C=C(SC)SC)cc1`, the melting point lay in the range of 93 to 94 °C. In the case of `CC1(C)OC(=O)C(C(=O)Nc2ccc(C(F)(F)F)cc2)=C(O)O1` it was 206 to 208 °C; in that of `CCCCN(c1nc(N2CCOCC2)nc(N(CCCC)C2CC(C)(C)N(OC3CCCCC3)C(C)(C)C2)n1)C1CC(C)(C)N(OC2CCCCC2)C(C)(C)C1`, 159 to 163 °C; in that of `COc1ccc(Cl)cc1C(=O)NCCc1ccc(CC2SC(=O)NC2=O)cc1` (centres undefined), 182 °C.

`CCCC1C(=O)N(S(=O)(=O)c2ccc3ccccc3c2)C2CCN(S(=O)(=O)CCCN3CCOCC3)C12` (centres undefined) registered a melting point of 189 to 192 °C. In the case of `CCOCc1nc2c(N)nc(C)c(C)c2n1CCCNC(=O)OCC` it was 148 to 150 °C.

The molecule `O=c1c2ccccc2sn1-c1ccccc1` had a melting point of 140 to 141 °C. On to `O=C1CN(C(=O)c2ccco2)c2ccccc2N1`, for which the melting point is 229 to 230 °C. In the case of `Cc1cc(O)c(C2C=CN(C)CC2)c(O)c1` (centres undefined) it was 241 to 243 °C.

`CC1(C)C[C@H]2c3cccc4c3N(CCNC4)[C@H]2C1` returned a melting point of 155 to 157 °C. The value for `C=CCCc1ccc(C(=O)O)c(O)n1` was 151 to 155 °C. In the case of `CN1CCN(C(=O)N2CC(Oc3ccc(Br)cc3)C2)CC1` it was 91 to 95 °C. The value for `CCOC(COc1ccc2c(-c3ccccc3F)noc2c1Cl)OCC` was 59 °C. `CC1(C(=O)Nc2ccc(N3CCOC3=O)c(C(F)(F)F)c2)CC1` gave a melting point of 146 to 147 °C.

Turning to `S=c1[nH]nc(C=Cc2ccc3ccccc3c2)o1`, the melting point is above 250 °C.

Molecule `CC(C)(C)c1cc(C(=O)NCC(=O)Nc2ccc(N=C(N)c3cccs3)cc2)cc(C(C)(C)C)c1O` came in with a melting point above 250 °C. In the case of `COc1nc2cc(Br)c(Br)c(NS(C)(=O)=O)c2nc1OC` it was 186 to 187 °C; in that of `NC(=O)c1nccn1C1Cc2c(Cl)cccc2C1=O` (centres undefined), 90 °C; in that of `COc1ccc(N2CCOCC2)c2sc(-c3nc4ccccc4n3C)nc12`, 283 to 285 °C. The value for `COc1ccc(N2CCOC(c3ccc(C(F)(F)F)cc3)C2)c(-c2ccc(N(C)C)cc2)n1` (centres undefined) was 160 to 161 °C. In the case of `CC(C)(C)OC(=O)N1[C@@H](C(=O)O)CC[C@H]1c1ccccc1` (racemic) it was 113 to 117 °C; in that of `CCOC(=O)C1=Cc2cc(Br)ccc2SC1`, 87 °C; in that of `O=S1(=O)NCCCN1CCc1ccncc1`, 124 to 125 °C. `Fc1cccc(F)c1-c1cnnc(-c2ccc(-c3ccc(OC(F)(F)F)cc3)cc2)n1`: the melting point is 159 to 160 °C. `CC(C)(C)OC(=O)Nc1cc(Cl)c(Cl)c(Cl)c1` showed a melting point of 120 °C.

As for `CCCCc1nc2cccc(CC#N)c2n1Cc1ccccc1Cl`, the melting point is 124 to 125 °C.

In turn, `CN1CCC(C2(C(N)=O)Cc3ccc([N+](=O)[O-])cc3C2=O)CC1` (centres undefined) registered a melting point of 189 to 190 °C. In the case of `Cc1noc(C)c1S(=O)(=O)n1c(COC(C)C(=O)O)cc2cc(Cl)ccc21` (centres undefined) it was 110 to 112 °C; in that of `CC(C)NNC(=O)OCc1ccccc1`, 61 to 62 °C.
